Measurements: the NIST ThermoML archive (doi:10.1021/je900596d)
± gives the expanded uncertainty stated by the source.

Settings: Vibrating tube method

FC(F)=C(F)C(F)(F)F [hexafluoropropene]
Settings	mass density [kg/m3]
303.28 K, 499 kPa, Fluid (supercritical or subcritical phases)	33.24 ± 0.05
303.28 K, 504.3 kPa, Fluid (supercritical or subcritical phases)	33.56 ± 0.06
303.28 K, 509.6 kPa, Fluid (supercritical or subcritical phases)	33.97 ± 0.06
303.28 K, 514.9 kPa, Fluid (supercritical or subcritical phases)	34.46 ± 0.06
303.28 K, 525.4 kPa, Fluid (supercritical or subcritical phases)	35.23 ± 0.06
303.28 K, 530.6 kPa, Fluid (supercritical or subcritical phases)	35.69 ± 0.06
303.28 K, 535.9 kPa, Fluid (supercritical or subcritical phases)	36.01 ± 0.06
303.28 K, 541.1 kPa, Fluid (supercritical or subcritical phases)	36.49 ± 0.06
303.28 K, 546.3 kPa, Fluid (supercritical or subcritical phases)	36.92 ± 0.06
303.28 K, 551.5 kPa, Fluid (supercritical or subcritical phases)	37.29 ± 0.06
303.28 K, 556.7 kPa, Fluid (supercritical or subcritical phases)	37.7 ± 0.06
303.28 K, 572.3 kPa, Fluid (supercritical or subcritical phases)	38.97 ± 0.06
303.28 K, 577.4 kPa, Fluid (supercritical or subcritical phases)	39.31 ± 0.06
303.28 K, 582.5 kPa, Fluid (supercritical or subcritical phases)	39.71 ± 0.06
303.28 K, 587.5 kPa, Fluid (supercritical or subcritical phases)	40.14 ± 0.06
303.28 K, 597.7 kPa, Fluid (supercritical or subcritical phases)	41.02 ± 0.06
303.28 K, 605.4 kPa, Fluid (supercritical or subcritical phases)	41.64 ± 0.07
303.28 K, 610.5 kPa, Fluid (supercritical or subcritical phases)	42.03 ± 0.07
303.28 K, 615.6 kPa, Fluid (supercritical or subcritical phases)	42.45 ± 0.07
303.28 K, 625.6 kPa, Fluid (supercritical or subcritical phases)	43.25 ± 0.07
303.28 K, 630.6 kPa, Fluid (supercritical or subcritical phases)	43.67 ± 0.07
303.28 K, 635.6 kPa, Fluid (supercritical or subcritical phases)	44.16 ± 0.07
303.28 K, 640.7 kPa, Fluid (supercritical or subcritical phases)	44.51 ± 0.07
303.28 K, 650.7 kPa, Fluid (supercritical or subcritical phases)	45.35 ± 0.07
303.28 K, 655.6 kPa, Fluid (supercritical or subcritical phases)	45.82 ± 0.07
303.28 K, 660.6 kPa, Fluid (supercritical or subcritical phases)	46.19 ± 0.07
303.28 K, 665.5 kPa, Fluid (supercritical or subcritical phases)	46.57 ± 0.07
303.28 K, 670.5 kPa, Fluid (supercritical or subcritical phases)	47.07 ± 0.07
303.28 K, 675.4 kPa, Fluid (supercritical or subcritical phases)	47.49 ± 0.07
303.28 K, 680.3 kPa, Fluid (supercritical or subcritical phases)	47.87 ± 0.08
303.28 K, 685.2 kPa, Fluid (supercritical or subcritical phases)	48.24 ± 0.08
303.28 K, 690 kPa, Fluid (supercritical or subcritical phases)	48.67 ± 0.08
303.28 K, 694.8 kPa, Fluid (supercritical or subcritical phases)	49.19 ± 0.08
303.28 K, 709.3 kPa, Fluid (supercritical or subcritical phases)	50.39 ± 0.08
303.28 K, 714.1 kPa, Fluid (supercritical or subcritical phases)	50.86 ± 0.08
303.28 K, 718.9 kPa, Fluid (supercritical or subcritical phases)	51.33 ± 0.08
303.28 K, 723.7 kPa, Fluid (supercritical or subcritical phases)	51.66 ± 0.08
303.28 K, 728.6 kPa, Fluid (supercritical or subcritical phases)	52.22 ± 0.08
303.28 K, 734.4 kPa, Fluid (supercritical or subcritical phases)	52.63 ± 0.08
303.28 K, 746.1 kPa, Fluid (supercritical or subcritical phases)	53.68 ± 0.08
303.28 K, 750.9 kPa, Fluid (supercritical or subcritical phases)	54.09 ± 0.08
303.28 K, 756.7 kPa, Fluid (supercritical or subcritical phases)	54.65 ± 0.08
303.28 K, 768.4 kPa, Fluid (supercritical or subcritical phases)	55.74 ± 0.09
303.28 K, 774.1 kPa, Fluid (supercritical or subcritical phases)	56.3 ± 0.09
303.28 K, 779.9 kPa, Fluid (supercritical or subcritical phases)	56.84 ± 0.09
303.28 K, 785.6 kPa, Fluid (supercritical or subcritical phases)	57.36 ± 0.09
303.28 K, 791.2 kPa, Fluid (supercritical or subcritical phases)	57.85 ± 0.09
303.28 K, 796.9 kPa, Fluid (supercritical or subcritical phases)	58.41 ± 0.09
303.28 K, 802.6 kPa, Fluid (supercritical or subcritical phases)	58.95 ± 0.09
303.28 K, 808.2 kPa, Fluid (supercritical or subcritical phases)	59.58 ± 0.09
303.28 K, 813.9 kPa, Fluid (supercritical or subcritical phases)	60.04 ± 0.09
303.28 K, 823.6 kPa, Fluid (supercritical or subcritical phases)	61.02 ± 0.09
303.28 K, 828.8 kPa, Fluid (supercritical or subcritical phases)	61.46 ± 0.09
303.28 K, 838 kPa, Fluid (supercritical or subcritical phases)	62.51 ± 0.11
303.28 K, 841.4 kPa, Fluid (supercritical or subcritical phases)	62.82 ± 0.12
303.28 K, 842 kPa, Fluid (supercritical or subcritical phases)	62.87 ± 0.12
303.28 K, 842.4 kPa, Fluid (supercritical or subcritical phases)	62.98 ± 0.12
303.28 K, 843.8 kPa, Fluid (supercritical or subcritical phases)	63.1 ± 0.1
303.28 K, 844.7 kPa, Fluid (supercritical or subcritical phases)	63.37 ± 0.1
303.28 K, 845.6 kPa, Fluid (supercritical or subcritical phases)	63.62 ± 0.1
303.28 K, 846.3 kPa, Fluid (supercritical or subcritical phases)	63.97 ± 0.11
303.28 K, 846.8 kPa, Fluid (supercritical or subcritical phases)	64.22 ± 0.11
303.28 K, 847.7 kPa, Fluid (supercritical or subcritical phases)	64.87 ± 0.12
303.28 K, 848.2 kPa, Fluid (supercritical or subcritical phases)	65.17 ± 0.12
303.36 K, 851.7 kPa, Liquid	1288.08 ± 1.3
303.36 K, 854.5 kPa, Liquid	1288.17 ± 1.3
303.36 K, 856.9 kPa, Liquid	1288.04 ± 1.3
303.36 K, 858.9 kPa, Liquid	1288.19 ± 1.3
303.36 K, 870 kPa, Liquid	1288.22 ± 1.3
303.36 K, 873.5 kPa, Liquid	1288.36 ± 1.3
303.36 K, 880.9 kPa, Liquid	1288.43 ± 1.3
303.36 K, 885.8 kPa, Liquid	1288.43 ± 1.3
303.36 K, 887.7 kPa, Liquid	1288.47 ± 1.3
303.36 K, 903 kPa, Liquid	1288.59 ± 1.3
303.36 K, 908.2 kPa, Liquid	1288.61 ± 1.3
303.36 K, 911.2 kPa, Liquid	1288.78 ± 1.3
303.36 K, 918.3 kPa, Liquid	1288.76 ± 1.3
303.36 K, 927 kPa, Liquid	1288.93 ± 1.3
303.36 K, 935.5 kPa, Liquid	1288.99 ± 1.3
303.36 K, 940.8 kPa, Liquid	1288.91 ± 1.3
303.36 K, 943.4 kPa, Liquid	1289.1 ± 1.3
303.36 K, 946.1 kPa, Liquid	1289.23 ± 1.3
303.36 K, 954.6 kPa, Liquid	1289.18 ± 1.3
303.36 K, 959.8 kPa, Liquid	1289.24 ± 1.3
303.36 K, 965.5 kPa, Liquid	1289.39 ± 1.3
303.36 K, 974 kPa, Liquid	1289.46 ± 1.3
303.36 K, 983.2 kPa, Liquid	1289.54 ± 1.3
303.36 K, 988.8 kPa, Liquid	1289.67 ± 1.3
303.36 K, 995.6 kPa, Liquid	1289.74 ± 1.3
303.36 K, 1001.4 kPa, Liquid	1289.81 ± 1.3
303.36 K, 1006.1 kPa, Liquid	1289.98 ± 1.3
303.36 K, 1016.7 kPa, Liquid	1289.99 ± 1.3
303.36 K, 1021.3 kPa, Liquid	1290 ± 1.3
303.36 K, 1025.8 kPa, Liquid	1290.01 ± 1.3
303.36 K, 1030.5 kPa, Liquid	1290.08 ± 1.3
303.36 K, 1045.7 kPa, Liquid	1290.29 ± 1.3
303.36 K, 1063.4 kPa, Liquid	1290.5 ± 1.3
303.36 K, 1068.6 kPa, Liquid	1290.58 ± 1.3
303.36 K, 1082.5 kPa, Liquid	1290.71 ± 1.3
303.36 K, 1095.4 kPa, Liquid	1290.76 ± 1.3
303.36 K, 1106.3 kPa, Liquid	1291.06 ± 1.3
303.36 K, 1118.1 kPa, Liquid	1291.22 ± 1.3
303.36 K, 1152.1 kPa, Liquid	1291.56 ± 1.3
303.36 K, 1163 kPa, Liquid	1291.61 ± 1.3
303.36 K, 1174.7 kPa, Liquid	1291.89 ± 1.3
303.36 K, 1188.2 kPa, Liquid	1292.04 ± 1.3
303.36 K, 1203.3 kPa, Liquid	1292.26 ± 1.3
303.36 K, 1216 kPa, Liquid	1292.23 ± 1.3
303.36 K, 1235 kPa, Liquid	1292.43 ± 1.3
303.36 K, 1249 kPa, Liquid	1292.78 ± 1.3
303.36 K, 1261.3 kPa, Liquid	1292.76 ± 1.3
303.36 K, 1289 kPa, Liquid	1293.23 ± 1.3
303.36 K, 1305.6 kPa, Liquid	1293.27 ± 1.3
303.36 K, 1340.2 kPa, Liquid	1293.72 ± 1.3
303.36 K, 1361.8 kPa, Liquid	1293.94 ± 1.3
303.36 K, 1383.4 kPa, Liquid	1294.19 ± 1.3
303.36 K, 1404.6 kPa, Liquid	1294.41 ± 1.3
303.36 K, 1448.9 kPa, Liquid	1294.92 ± 1.3
303.36 K, 1483.7 kPa, Liquid	1295.38 ± 1.3
303.36 K, 1495.8 kPa, Liquid	1295.69 ± 1.3
303.36 K, 1517.4 kPa, Liquid	1295.82 ± 1.3
303.36 K, 1540.3 kPa, Liquid	1296.17 ± 1.3
303.36 K, 1561.5 kPa, Liquid	1296.23 ± 1.3
303.36 K, 1582.1 kPa, Liquid	1296.56 ± 1.3
303.36 K, 1615.7 kPa, Liquid	1296.92 ± 1.3
303.36 K, 1637.2 kPa, Liquid	1297.09 ± 1.3
303.36 K, 1659.1 kPa, Liquid	1297.43 ± 1.3
303.36 K, 1680.6 kPa, Liquid	1297.48 ± 1.3
303.36 K, 1726.5 kPa, Liquid	1298.26 ± 1.3
303.36 K, 1771 kPa, Liquid	1298.55 ± 1.3
303.36 K, 1793.6 kPa, Liquid	1298.76 ± 1.3
303.36 K, 1815.1 kPa, Liquid	1299.1 ± 1.3
303.36 K, 1837.5 kPa, Liquid	1299.36 ± 1.3
303.36 K, 1861.7 kPa, Liquid	1299.58 ± 1.3
